Publication PMC3669129, “Fast, Non-Competitive and Reversible Inhibition of NMDA-Activated Currents by 2-BFI Confers Neuroprotection” (PLoS ONE, 2013)
Where two headings read alike, the source gives them in different places.

Columns and labels:
[1] = target: [3H]2-BFI binding sites (I2-imidazoline receptors); parameters: method as in PMID 9228188; conditions: cerebral cortex; read-out: Ki for a single class of [3H]2-BFI binding sites; cited from earlier work
[2] = system: transient cerebral ischemia; parameters: method as in PMID 19508825, PMID 20840843, PMID 22771326; conditions: rodent model of stroke; cited from earlier work
cortical neurons = test: Neuroprotection against NMDA excitotoxicity (nuclear staining, Alamar Blue viability); format: cell-based, rat; conditions: for number of condensed nuclei (NMDA-induced neuronal death): nuclear staining of cortical neurons treated with NMDA
Procedure: (§1) Primary cortical neurons were prepared from embryonic E18 Sprague-Dawley rats and cultured in neurobasal medium supplemented with B27 [24]. Briefly, cortices were explanted and cleaned free of meninges. The cortices were placed in D-Hanks’ solution and digested at 37°C with 0.05% trypsin-EDTA for 6 min. They were subsequently resuspended in DMEM medium supplemented with 20% fetal calf serum and 1% penicillin/streptomycin to stop digestion and were further dissociated into individual cells by trituration and plated on poly-D-lysine-coated glass coverslips in culture dishes at a density of 7×10^5 cells/ml. After the neurons had attached to the coverslips for 2 hrs, the medium was changed to neurobasal medium containing 2% B27 supplement. Neurons were incubated at 37°C in a humidified atmosphere of 5% CO2 for 7–8 days before electrophysiological experiments.
After 7 days-in-vitro, cortical neurons were treated with the specific inhibitor for 15 min prior to the addition of 100 µM glutamate or 200 µM NMDA at 37°C. The plates were then incubated for up to 24 h at 37°C in the presence or absence of inhibitors. Untreated cells were also included as controls. At the end of the treatment period, cells were either fixed for staining or subjected to a neuronal viability assay using Alamar Blue (Invitrogen). Stained cells were examined under a fluorescent microscope (Carl Zeiss, AX10 vert 200M), and digital images were taken and analyzed using Image J software (http://rsbweb.nih.gov/ij/). The viability of cortical neurons treated with NMDA, and with or without inhibitors as mentioned, was assayed using an Alamar Blue assay (Invitrogen). Briefly, a 1∶10 dilution of Alamar blue was added to cells for 1 h at 37°C. One third of the medium was removed and read in a 96-well plate using a plate reader with λEx = 530 nm and λEm = 590 nm. At minimum, a triplicate reading was obtained per experiment with three independent repeats.

rodents = system: rodents; parameters: method as in PMID 19508825, PMID 20840843, PMID 22771326, PMID 19083996, PMID 21303658; conditions: previous animal studies; cited from earlier work
rat cortical neurons = test: Effect of 2-BFI alone on neuronal excitability (current and membrane potential); format: cell-based; conditions: 3–1000 µM 2-BFI
Procedure: as §1
(§2) Whole-cell patch-clamp recordings were carried out at room temperature (22–25°C) using an Axopatch 700A patch-clamp amplifier (Axon Instruments, Inverurie, Scotland). Data acquisition was achieved using a DigiData 1322A with pClamp 9.0 software. The acquisition rate was 10 kHz and signals were filtered at 5 kHz. Patch electrodes were pulled with a Flaming/Brown micropipette puller (Sutter Instruments, Novato, CA) and fire-polished. […]

[3] = system: NMDA receptor-mediated [Ca2+]i influx; test: Ratiometric Fura-2 measurement of NMDA-evoked [Ca2+]i in cortical neurons; format: cell-based, mouse; conditions: for reversibility of block of NMDA receptor-mediated [Ca2+]i influx on removal of inhibitor: MK801 10 µM, 2-BFI 200 µM, memantine 10 µM, NMDA 100 µM, wash with PSS, n = 20 cells per treatment
Procedure: Ratiometric measurement of [Ca^2+]i was performed using Fura-2 AM [25]. Briefly, mouse cortical neurons at 7 days-in-vitro on glass coverslips were loaded with 5 µM Fura-2-AM (Molecular Probes, Eugene, CA) plus 0.02% pluronic (Life Technologies, INC, Burlington, ON, Canada) for 30 min at 37°C. After rinsing with PSS Mg^2+ free buffer containing 2 mM HEPES (pH 7.2), 140 mM NaCl, 5 mM KCl, 2.3 mM CaCl2, and 10 mM glucose, and stabilized in the same buffer for 5 min, Fura-2 intensities were measured using a Northern Eclipse Digital Ratio Image System (EMPIX, Mississauga, ON, Canada) with an Axiovert 200 camera and light source (Zeiss, Thornwood, NY). Fura-2 fluorescence was measured at 510 nm emission with 340/380 nm dual excitation selected by a DG-5 system (Sutter Instrument Company, Novato, CA). [Ca^2+]i concentration was represented by the ratio of florescence intensity between the two excitation wavelengths of R340/380 of Fura-2 after correction for background. R340/380 for 10 cells in one field of each coverslip was averaged. The basal level of [Ca^2+]i was recorded for 20 sec, followed by the application of inhibitors. […] [Ca^2+]i was recorded for 60–100 sec. After washing with PSS buffer for 300 sec, PSS buffer containing 45 mM KCl was added to neurons to record changes in [Ca^2+]i for 60 sec to show viability of neurons. All measurements were repeated for at least 3 times. The data was analyzed using Microsoft Excel and presented as the mean of three experiments.

AMPA receptor = test: Whole-cell patch-clamp recording of AMPA-activated current in cultured cortical neurons; format: cell-based, rat; conditions: 200 µM 2-BFI; 100 µM AMPA; paired t-test P>0.05, n = 8
Procedure: as §1, §2

[4] = system: spectrin breakdown product (SBP); format: cell-based, rat; conditions: 2 h treatment with NMDA; Western blot
[5] = parameters: method as in PMID 9228188; conditions: cited from earlier work
NMDA receptors = test: Whole-cell patch-clamp recording of NMDA-activated current in cultured cortical neurons; format: cell-based, rat; conditions: for EC50: n = 6–8
Procedure: as §1
Whole-cell patch-clamp recordings were carried out at room temperature (22–25°C) using an Axopatch 700A patch-clamp amplifier (Axon Instruments, Inverurie, Scotland). Data acquisition was achieved using a DigiData 1322A with pClamp 9.0 software. The acquisition rate was 10 kHz and signals were filtered at 5 kHz. Patch electrodes were pulled with a Flaming/Brown micropipette puller (Sutter Instruments, Novato, CA) and fire-polished. […] For the voltage-clamp recordings, the capacity transients were cancelled using the resistance capacitance circuit within the amplifier. After the formation of whole-cell configuration, access resistances were generally <15 MΩ. Series resistance compensation was set to 70%–90%. The liquid junction potential was approximately 2 mV and was auto-adjusted each time by pipette offset. To record NMDA/AMPA-activated currents, the external solution [(containing (mM): NaCl 150, KCl 5, CaCl2 0.2, glucose 10 and HEPES 10, pH adjusted to 7.4 with NaOH)] and the pipette solution [containing (mM): KCl 140, MgCl2 2.5, HEPES 10, EGTA 11, ATP 5, pH adjusted to 7.3 with KOH] were used. For voltage-clamp recordings, the membrane potential was held at −70 mV, unless noted otherwise. Drug solutions were prepared in extracellular solutions and applied to neurons by pressure using the 8-Channel Focal Perfusion System (ALA Scientific Instruments, Farmingdale, NY). Neurons were bathed constantly in extracellular solution between drug applications. Drug solution exchange was accomplished by electronic control.
Patch-clamp data was processed using Clampfit 9.0 (Axon Instruments) and then analyzed in Origin 7.5 (OriginLab, Northampton, MA). The dose-response curve was fitted to the logistic equation: y = (A1–A2)/[1+ (x/x0 )^p]+A2, where y is the response, A1 and A2 are the maximum and minimum response, respectively, x0 is the concentration corresponding to half-maximal effect, x is the drug concentration, and p is the Hill coefficient.
The onset and offset rates of 2-BFI were measured from the recordings by the binding kinetic protocol, where a single concentration of 2-BFI was applied in the constant presence of agonists. Tauon and Tauoff were obtained by a single exponential function fit: I = A×[1-exp(-t/τ)]+I 0, where I is the current, I 0 is the steady-state amplitude of the current, A is the difference between the peak and steady state current amplitudes, t is time, and τ is the time constant.

NMDAR = conditions: read-out: IC50 of memantine; at −70 mV; ref not given; cited from earlier work

For c1ccc2oc(C3=NCCN3)cc2c1 [2-BFI, 2-(2-benzofu-ranyl)-2-imidazoline], the Ki [1] is given as 0.0098 µM, the “neuroprotection against transient cerebral ischemia” value [2] is given as “potently and dose-dependently neuroprotective” and the “protection against NMDA toxicity, Alamar blue assay” value (cortical neurons; dose- and time-course, paired t-test P<0.01, n = 8) is given as “Dose-dependent neuroprotection”. The “number of condensed nuclei (NMDA-induced neuronal death)” value (shortened to “number of condensed nuclei”) (cortical neurons) was “reduced”, the “side effects of administration to rodents” value (rodents) was “no visible side effects” and the “effect of 2-BFI alone on membrane potential” value (rat cortical neurons) was “nor affected the membrane potential”. The “current induced by 2-BFI alone” value (rat cortical neurons; −50 mV) was “neither induced any detectable current”, the “effect on NMDA-evoked [Ca2+]i influx” value ([3]; 10–1000 µM 2-BFI, 100 µM NMDA, n = 20 cells per dose point) was “significantly suppressed” and the “reversibility of block of NMDA receptor-mediated [Ca2+]i influx on removal of inhibitor” value (“reversibility of block … of inhibitor” below) [3] was “able to respond to NMDA (100 µM) almost immediately”. The “inhibition of AMPA-induced currents” value (AMPA receptor) was “did not inhibit”, the “level of spectrin breakdown product (SBP)” value (“level” for short) [4] was “effectively reduced” and the “crossing of the blood brain barrier” value [5] was “able to cross the blood brain barrier”. For the same compound, the “average reversal potential of current activated by NMDA and glycine” value (NMDA receptors; 30 µM NMDA and 1 µM glycine in the presence of 200 µM 2-BFI, n = 6) was 2.8±3.2 mV, the IC50 (NMDA receptors; 30 µM NMDA plus 1 µM glycine, 2-BFI 10–2000 µM pre-applied 30 s, −70 mV, n = 6, read-out: IC50 for inhibition of NMDA-activated current) was 124 ± 13.1 µM and the “slope factor of the concentration-response curve for inhibition of NMDA-activated current” value (NMDA receptors; 30 µM NMDA plus 1 µM glycine, −70 mV, n = 6) was 1.2±0.1. For the same compound, the “effect on Emax of NMDA and glycine” value (NMDA receptors; 200 µM 2-BFI) was “greatly reduced”, the “inhibition of NMDA-induced currents” value (NMDA receptors; 200 µM 2-BFI, 30 µM NMDA plus 1 µM glycine, paired t-test P<0.001, n = 8) was “marked inhibition” and the “voltage dependence of average inhibition of NMDA-activated current” value (NMDA receptors; 200 µM 2-BFI, membrane potentials from −60 mV to +60 mV, ANOVA P>0.05, n = 6) was “not significantly different”. The “mode of NMDAR antagonism” value (NMDA receptors; EC50s and slope factors of NMDA and glycine unchanged by 200 µM 2-BFI) was “non-competitive antagonist”, the “reversibility of inhibition of NMDA-activated current” value (NMDA receptors; after a few seconds of washing) was “fully reversible” and the Kd (NMDA receptors; from fitted kinetic values, read-out: Kd = Koff/Kon) was 305.94 ± 0.3 µM. It also gave a Koff (NMDA receptors; kinetic protocol, constant presence of 30 µM NMDA plus 1 µM glycine, single exponential fit) of 0.67 ± 0.02 s⁻¹.

In the case of c1ccc2c(c1)OCC(C1=NCCN1)O2 (stereo not shown) [Idazoxan], the “neuroprotection against transient cerebral ischemia” value [2] is listed as “potently and dose-dependently neuroprotective” and the “crossing of the blood brain barrier” value [5] is listed as “readily cross the blood brain barrier”.

With C[C@]12N[C@H](Cc3ccccc31)c1ccccc12 [MK801] the “number of condensed nuclei” value (cortical neurons) was “reduced”, the “reversibility of block … of inhibitor” value [3] was “non-reversibly blocked” and the “level” value [4] was “effectively reduced”.

For CN[C@H](CC(=O)O)C(=O)O [NMDA, N-methyl-D-aspartic acid], the “slope factor of NMDA concentration-response curve” value (NMDA receptors; in the absence of 2-BFI, 1 µM glycine) was 1.25±0.1, the EC50 (NMDA receptors; in the absence of 2-BFI, 1 µM glycine, read-out: EC50 of NMDA for current activation) was 33.7 ± 4.3 µM and the “slope factor of NMDA concentration-response curve” value (NMDA receptors; in the presence of 200 µM 2-BFI, 1 µM glycine) was 1.25±0.6.

For NCC(=O)O [glycine], the “slope factor of glycine concentration-response curve” value (NMDA receptors; in the absence of 2-BFI, 30 µM NMDA) was 0.39±0.2, the EC50 (NMDA receptors; in the absence of 2-BFI, 30 µM NMDA, read-out: EC50 of glycine for current activation) was 1.52 ± 1.6 µM and the “slope factor of glycine concentration-response curve” value (NMDA receptors; in the presence of 200 µM 2-BFI, 30 µM NMDA) was 0.58±0.6.

In the case of CC12CC3CC(C)(C1)CC(N)(C3)C2 [memantine], the “number of condensed nuclei” value (cortical neurons) is reported as “reduced”, the “reversibility of block … of inhibitor” value [3] is reported as “able to respond to NMDA (100 µM) almost immediately” and the “level” value [4] is reported as “effectively reduced”. For the same compound, the IC50 (NMDAR) was 1.2 µM.
